# Measurements as given in patent EP0598753B1, “MANGANESE COMPLEXES OF NITROGEN-CONTAINING MACROCYCLIC LIGANDS EFFECTIVE AS CATALYSTS FOR DISMUTATING SUPEROXIDE” (MONSANTO COMPANY, priority 1991, dated 1993).
# Assays:
# [1] = system: human aortic endothelial cells (HAE cells)
# From the text: (§1) Human peripheral blood neutrophils were isolated from fresh venous blood of healthy volunteers. EDTA anticoagulated blood was separated using a single step density centrifugation (Polymorphprep; Nycomed Pharma, Oslo, Norway) followed by several washes in Hank's balanced salt solution supplemented with 0.5% BSA (Bovine Serum Albumin) (HBSSB) and the hypertonic lysis of erythrocytes. Neutrophils were counted via Coulter electronic particle counter and resuspended in HBSSB supplemented with 25% Endothelial Basal Medium (EBM), (Clonetics Corporation, San Diego, CA) at a concentration of 5 x 10^6 polymorphonuclear leukocytes (PMN)/ml.
# (§2) The cytotoxic effects of stimulated neutrophils on endothelial cells were determined using a ^51Cr-release assay as previously described (Moldow, C.F., and Jacob, H.S. (1984) Methods Enzymol. 105, 378-385). Confluent monolayers of human aortic endothelial cells (HAE cells; Clonetics) grown in 96-well culture plates were prelabeled with 1 µCi/well ^51Cr (Na2 ^51Cr2O4, New England Nuclear, Boston, MA). The cells were incubated for 18 h at 37°C, then cytokine-activated with 10 Units/well human recombinant tumor necrosis factor-a (hrTNF-α; Monsanto Company, St. Louis, MO) for 4 h at 37°C. The cells were washed twice to remove unincorporated radioactivity with Hank's balanced salt solution supplemented with 0.5% BSA. To assess inhibition of PMN-mediated cytotoxicity, manganese(II) complexes at various doses (0-300 µM) were added to five replicate wells/dose of HAE cells immediately prior to the addition of PMN. Suspensions of PMN in HBSSB supplemented with 25% Endothelial Basal Medium were added to the wells at a neutrophil to endothelial cell ratio of 50:1. The PMN were allowed to adhere for 15 minutes at 37°C, primed with 125 Units/well hrTNF-α (Berkow, R.L., Wang, D., Larrick, J.W., Dodson, R.W., and Howard, T.H. (1987) J. Immunol. 139, 3783-3791; Varani, J.; Bendelow, M. J. Sealey, D. E.; Kunkel, S. L.; Gannon, D. E.; Ryan, U.S.; and Ward, P.A. (1987) Lab. Invest., 59, 292-295) for 10 minutes, and stimulated with human recombinant complement component C5a (Sigma Chemical, St. Louis, MO). […] After an additional incubation of 4 hours at 37°C, 200 µl of the 250 µl reaction volume (soluble fraction) was removed to a tube for counting. The cells were washed twice with 200 µl HBSSB (nonadherent fraction) and the washes pooled with the soluble fraction. The adherent fraction was collected by lysing the HAE cells with 200 µl 1N NaOH for 30 minutes and removing to separate tubes. Both fractions were analyzed by gamma scintillation spectrometry. The percentage cytotoxicity was calculated by the following formula: % Cytotoxicity =(cpm (soluble + nonadherent fractions))/(cpm (soluble + nonadherent + adherent fractions))x 100 [formula] Specific cytotoxicity reflects the difference between ^51Cr-release induced by stimulated PMN and unstimulated PMN. The IC50 values for the manganese(II) complexes for protection against neutrophil-mediated cytotoxicity were determined from a computer-driven logistic regression equation from a plot of % specific cytotoxicity versus the concentration of the manganese(II) complex.
# [2] = Stopped-flow kinetic analysis of catalytic dismutation of superoxide; type: biochemical; conditions: catalytic rate constant for dismutation of superoxide, pH 8.1 and 21°C
# From the text: Stopped-flow kinetic analysis is an accurate and direct method for quantitatively monitoring the decay rates of superoxide in water.
# For the attainment of consistent and accurate measurements all reagents were biologically clean and metal-free. To achieve this, all buffers (Calbiochem) were biological grade, metal-free buffers and were handled with utensils which had been washed first with 0.1 N HCl, followed by purified water, followed by a rinse in a 10^-4 M EDTA bath at pH 8, followed by a rinse with purified water and dried at 65°C for several hours. Dry DMSO solutions of potassium superoxide (Aldrich) were prepared under a dry, inert atmosphere of argon in a Vacuum Atmospheres dry glovebox using dried glassware. The DMSO solutions were prepared immediately before every stopped-flow experiment. A mortar and pestle were used to grind the yellow solid potassium superoxide (~100 mg). The powder was then ground with a few drops of DMSO and the slurry transferred to a flask containing an additional 25 ml of DMSO. The resultant slurry was stirred for 1/2 h and then filtered. […] These solutions were transferred to a glovebag under nitrogen in sealed vials prior to loading the syringe under nitrogen. It should be noted that the DMSO/superoxide solutions are extremely sensitive to water, heat, air, and extraneous metals. A fresh, pure solution has a very slight yellowish tint.
# Water for buffer solutions was delivered from an in-house deionized water system to a Barnstead Nanopure Ultrapure Series 550 water system and then double distilled, first from alkaline potassium permanganate and then from a dilute EDTA solution. For example, a solution containing 1.0 g of potassium permanganate, 2 liters of water and additional sodium hydroxide necessary to bring the pH to 9.0 were added to a […] fitted with a solvent distillation head. This distillation will oxidize any trace of organic compounds in the water. The final distillation was carried out under nitrogen in a 2.5-liter flask containing 1500 ml of water from the first still and 1.0 x 10^-6M EDTA. This step will remove remaining trace metals from the ultrapure water. To prevent EDTA mist from volatilizing over the reflux arm to the still head, the 40-cm vertical arm was packed with glass beads and wrapped with insulation. This system produces deoxygenated water that can be measured to have a conductivity of less than 2.0 nanomhos/cm^2.
# The stopped-flow spectrometer system was designed and manufactured by Kinetic Instruments Inc. (Ann Arbor, MI) and was interfaced to a MAC IICX personal computer. The software for the stopped-flow analysis was provided by Kinetics Instrument Inc. and was written in QuickBasic with MacAdios drivers. Typical injector volumes (0.10 ml of buffer and 0.006 ml of DMSO) were calibrated so that a large excess of water over the DMSO solution were mixed together. […] Aqueous solutions to be mixed with the DMSO solution of superoxide were prepared using 80 mM concentrations of the Hepes buffer, pH 8.1 (free acid + Na form). One of the reservoir syringes was filled with 5 ml of the DMSO solution while the other was filled with 5 ml of the aqueous buffer solution. The entire injection block, mixer, and spectrometer cell were immersed in a thermostatted circulating water bath with a temperature of 21.0 ± 0.5°C.
# Prior to initiating data collection for a superoxide decay, a baseline average was obtained by injecting several shots of the buffer and DMSO solutions into the mixing chamber. These shots were averaged and stored as the baseline.
# [3] = system: colonic myeloperoxidase activity; test: Mouse acetic acid-induced colitis model (colonic myeloperoxidase); type: in vivo; conditions: 30 mg/kg dose, intracolonic, 30 minutes before acetic acid, tissue after 24 hours
# Procedure: Mouse colitis model. […] Mice were lightly anesthetized. A solution of 3% (v/v) aqueous acetic acid was instilled intracolonically via a flexible polyethylene tube. After 24 hours, the animals were killed and colonic tissue samples were obtained. Tissue samples were assessed biochemically for the neutrophil marker enzyme, myeloperoxidase (MPO). The colonic tissue samples were minced, homogenized in detergent, and sonicated. After centrifugation, enzyme activities were assayed spectrophotometrically by determining the decomposition of peroxide using o-dianisidine as the hydrogen donor. Data was obtained as the absorbance (460 nm) at 20 minutes. Test agents were given intracolonically at a dose of 30 mg/kg body weight 30 minutes before acetic acid instillation as a sonicated suspension in 0.5% aqueous methyl cellulose. Vehicle was given to appropriate acetic acid control animals. Normal tissue was obtained from control animals which received only vehicle. Colonic myeloperoxidase activities were determined as units/g wet weight of tissue. Reduction of colonic myeloperoxidase activity by test agents in acetic acid-treated mice is expressed as % inhibition (Table 2). Colonic myeloperoxidase activity correlated with the degree of tissue inflammation as assessed by visual and histological analysis.
# [4] = system: human aortic endothelial cells (HAE cells); test: Neutrophil-mediated cytotoxicity assay (51Cr-release); conditions: 50% inhibition of specific cytotoxicity; human neutrophil-mediated killing of human aortic endothelial cells
# From the text: as §1, §2
Molecule,"protection against human neutrophil-mediated cytotoxicity, in words [1]",kCAT [2] [M⁻¹ s⁻¹],% Inhibition of Colonic Myeloperoxidase Activity [3] [%],IC50 [4] [µM]
"CC1CNCCNCCNCCNCCN1.[Cl-].[Cl-].[Mn+2] (centres unmarked) [Example 2, [Manganese(II)dichloro(2-Methyl-1,4,7,10,13-pentaazacyclopentadecane)]]",protective against human neutrophil-mediated cytotoxicity,2.67e+07,47,
"CC(C)CC1CNCCNCCNCCNCCN1.[Cl-].[Cl-].[Mn+2] (centres unmarked) [Example 5, [Manganese(II)dichloro(2-(2-Methylpropyl)-1,4,7,10,13-pentaazacyclopentadecane)]]",protective against human neutrophil-mediated cytotoxicity,,70,
"C1CCC(CC2CNCCNCCNCCNCCN2)CC1.[Cl-].[Cl-].[Mn+2] (centres unmarked) [Example 7, [Manganese(II)dichloro(2-Cyclohexylmethyl-1,4,7,10,13-pentaazacyclopentadecane)]]",protective against human neutrophil-mediated cytotoxicity,,77,22
"C1CNCCNCCNCCNCCN1.F[P-](F)(F)(F)(F)F.[Cl][Mn+] [Example 27, [Manganese(II)chloro(1,4,7,10,13-Pentaazacyclopentadecane)]Hexafluorophosphate]",protective against human neutrophil-mediated cytotoxicity,2.4e+07,,26
"[Manganese(II)diacetate(1,4,7,10,13-Pentaazacyclopentadecane)] [Example 8]",protective against human neutrophil-mediated cytotoxicity,,32,
"[Manganese(II)dichloro((S)-2-Methyl-1,4,7,10,13-pentaazacyclopentadecane)] [Example 3]",protective against human neutrophil-mediated cytotoxicity,2.39e+07,42,37
